# Source: US5773027A, “Liposomes encapsulating antiviral drugs” (priority 1995, dated 1998)
# Legend:
# [1] = Tissue distribution in rats; type: in vivo, rat (female Sprague-Dawley); details: single i.v. dose 10 mg foscarnet/kg
# Description: (§1) In brief, free and liposome-encapsulated drugs were injected to female Sprague-Dawley rats as a single intravenous bolus dose via a catheter inserted through the jugular vein of animals. At specific time points, animals were sacrificed and blood was collected in heparinized tubes and separated by centrifugation. At the same time, selected tissues were removed, washed, weighed and homogenized. Tissues and plasma were then treated according to a commercial tissue solubilizer procedure. The determination of drug and lipid levels in all samples were monitored with radioactive tracers.
# human CMV (AD169 strain) = test: Anti-CMV activity: CMV p72 protein expression in MRC-5 cells; type: cell-based; details: MRC-5 cell line, 96 hours, in words; FIG. 2g
# Description: The anti-CMV activity of free and liposome-encapsulated foscarnet has been also evaluated in embryonic lung fibroblast cells (MRC-5 cell line). […] After a 96 hours incubation, cells were fixed and immunoperoxydase staining was performed using a monoclonal antibody directed against a 72-kDa immediate early CMV protein Labeled plaques were counted and results were expressed as percent of untreated infected control cells versus concentration of foscarnet.
# [2] = Pharmacokinetics in rats (plasma); type: in vivo, rat (female Sprague-Dawley)
# Description: as §1
# Parameters were calculated from the plasma concentrationtime curves using
# a noncompartmental model.
# Values are expressed as means ± SD obtained from 6 animals per group
# [3] = test system: murine monocyte-macrophage RAW 264.7 cells; test: Cellular uptake in RAW 264.7 cells; details: in words, FIGS. 1a-1d
# Description: (§2) We have performed in vitro experiments to evaluate the accumulation of free and liposome-encapsulated anti-HIV agents in murine monocyte-macrophage RAW 264.7 cells and in human premonocytoid U937 cells. In brief, experiments were performed by incubating confluent cells in culture medium in presence of different concentrations of free and liposome-encapsulated anti-HIV agents in which a small proportion of radiolabeled drugs and lipids were added. At different incubation times, the medium was removed and cells were washed and treated with a Triton X-100 solution. Drug and lipid uptake were determined by measuring the radioactivity level with a liquid scintillation counter. The protein concentration for each sample was determined with a Pierce bicinchoninic acid protein assay (Rockford, Ill.) in microtiter plates.
# [4] = test system: human premonocytoid U937 cells; test: Cellular uptake in U937 cells; details: in words, FIGS. 1a, 1b
# Description: as §2
# HIV-1Ada-M = test: Antiviral efficacy in primary monocyte-derived macrophages infected with HIV-1Ada-M (p24); type: cell-based
# Description: Briefly, cells were infected with different strains of HIV with a multiplicity of infection of 1 (virus/target cell) and were treated with different concentrations of free and liposome-encapsulated drugs. Virus replication were monitored at different time intervals by measuring either the reverse transcriptase activity in cell-free supernatants or the viral p24 protein using an enzymatic test. Virus transcription was also monitored by polymerase chain reaction (PCR) analysis 24 hours after treatment using an HIV primer pair (M661/M667). The PCR evaluation was normalized with respect to the amount of human β-globin gene in cells. Cell viability was assessed using a tetrazolium-based colorimetric (MTT) assay.
# Peripheral blood mononuclear cells were suspended in seeding medium in a
# 48 wellplate at a density of 3 × 10^6 cells/ml. Five days after
# initiation of the cultures, nonadherent cells were removed by rinsing the
# cultures four times with PBS. Adherent cells were first preincubated in
# the presence or absence of drugcontaining medium for 2 hours prior to
# inoculation with 10,000 cpm/well of the AdaM monocytotropic strain of
# HIV1. Thereafter, medium was changed once every 4 to 5 days and was
# replaced with medium supplemented or not with ddI. Virus replication was
# monitored by measuring p24 levels using an enzymatic assay.
# [5] = [^14 C]-PFA, single i.v. dose 10 mg/kg, rats, mean ± SD
# [6] = [^3 H]ddI, single i.v. dose 3 mg ddI/kg, rats
structure (smiles),measurement,setting,value
"O=C(O)P(=O)(O)O [Free foscarnet, foscarnet]","Area under the curve, Brain",[1]; brain,3.1 nmol foscarnet/g tissue/h
same,"Area under the curve, Eyes",[1]; eyes,22.9 nmol foscarnet/g tissue/h
same,"Area under the curve, Liver",[1]; liver,1.2 nmol foscarnet/g tissue/h
same,"Area under the curve, Lungs",[1]; lungs,1.5 nmol foscarnet/g tissue/h
same,"Area under the curve, Lymph nodes",[1]; lymph nodes,20.3 nmol foscarnet/g tissue/h
same,"Area under the curve, Spleen",[1]; spleen,0.8 nmol foscarnet/g tissue/h
same,inhibitory activity against CMV p72 protein expression,human CMV (AD169 strain),comparable inhibitory activity
same,"AUC0→∞, area under the plasma concentration-time curve",[2]; [5],48.0 ± 9.6 nmol/mL/h
same,"Cl, systemic clearance",[2]; [5],12.8 ± 2.5 mL/min/kg
same,"Kel, elimination rate constant",[2]; [5],0.96 ± 0.06 h⁻¹
same,"MRT, mean residence time",[2]; [5],62.4 ± 4.2 min
same,"t1/2, elimination half-life",[2]; [5],42.6 ± 2.4 min
same,"Vdss, steady state volume of distribution","[2]; rat, in vivo, iv, 10 mg/kg",0.80 ± 0.14 L/kg
"O=c1[nH]cnc2c1ncn2[C@H]1CC[C@@H](CO)O1 [Free ddI, 2'-3'-dideoxyinosine]",drug uptake / accumulation in cells,[3],a higher accumulation
same,drug uptake / accumulation in cells,[4],a higher accumulation
same,p24 (Days post-infection),"HIV-1Ada-M; 0.1 μM, day 7",0 ng/mL
same,p24 (Days post-infection),"HIV-1Ada-M; 0.1 μM, day 13",20 ng/mL
same,p24 (Days post-infection),"HIV-1Ada-M; 0.1 μM, day 17",280 ng/mL
same,p24 (Days post-infection),"HIV-1Ada-M; 1 μM, day 7",0 ng/mL
same,p24 (Days post-infection),"HIV-1Ada-M; 1 μM, day 13",0 ng/mL
same,p24 (Days post-infection),"HIV-1Ada-M; 1 μM, day 17",0 ng/mL
same,p24 (Days post-infection),"HIV-1Ada-M; 10 μM, day 7",0 ng/mL
same,p24 (Days post-infection),"HIV-1Ada-M; 10 μM, day 13",0 ng/mL
same,p24 (Days post-infection),"HIV-1Ada-M; 10 μM, day 17",0 ng/mL
same,"AUC0-∞, area under the plasma concentration-time curve",[2]; [6],5.31 nmol/mL/h
same,"Cl, systemic clearance",[2]; [6],39.8 mL/min/kg
same,"Kel, elimination rate constant",[2]; [6],4.97 h⁻¹
same,"MRT, mean residence time",[2]; [6],12 min
same,"Vdss, steady state volume of distribution",[2]; [6],0.48 L/kg
same,"t1/2, elimination half-life",[2]; [6],8.4 min
